Data published in patent US8492377B2, “MTKI quinazoline derivatives” (Janssen Pharmaceutica NV, priority 2006, dated 2013).

Key:
human Src = human Src (Homo sapiens, UniProt P12931); assay: C1: c-Src filter assay; type: biochemical; conditions: 5 ng human Src, 1.0 μM unlabeled ATP, poly(Glu,Tyr) 4:1, 25° C., 10 minutes; read-out: C1: c-SRC filter pIC50 (converted)
Protocol: The in vitro inhibition of c-Src kinase was assessed using the glass-fiber filter technology as described by Davies, S. P. et al., Biochem J. (2000), 351; p. 95-105.
In the glass-fiber filter technology the activity of the kinase is measured using an appropriate substrate that is incubated with the aforementioned kinase protein in the presence of (^33P) radiolabeled ATP. (^33P) Phosporylation of the substrate is subsequently measured as radioactivity bound on a glassfiber-filter.
In an alternative filter based assay the final kinase activity was assessed using a phosphostorage screen instead of scintilation counting.
In this assay the Src kinase reaction is performed at 25° C. for 10 minutes in a 96-well microtiterplate. The 25 μl reaction volume contains 8 mM MOPS pH 7.0, 20 mM Mg-acetate, 0.2 mM Na2EDTA, 0.5 mM MnCl2, 1.0 μM unlabeled ATP, 0.2 μCi AT^33P, 20 ng poly(Glu,Tyr) 4:1 and 5 ng human Src.
The reaction is stopped by adding 5 μl of a 3% phosphoric acid solution. 5 μl of the reaction mixture is then spotted onto a Filtermat A filter (Wallac) and washed 3 times for 5 min. in 75 mM phosphoric acid and 1 time for 5 min. in methanol prior to drying and quantification on the Typhoon (Amersham) using a phosphostorage screen.

human Fyn = human Fyn (Homo sapiens, UniProt P06241); assay: C2: Fyn kinase assay; type: biochemical; conditions: 5 ng human Fyn, 1.0 μM unlabeled ATP, poly(Glu,Tyr) 4:1, 25° C., 10 minutes; read-out: C2: Fyn kinase pIC50 (converted)
Protocol: In this assay the Fyn kinase reaction is performed at 25° C. for 10 minutes in a 96-well microtiterplate. The 25 μl reaction volume contains 8 mM MOPS pH 7.0, 20 mM Mg-acetate, 0.2 mM Na2EDTA, 0.5 mM MnCl2, 1.0 μM unlabeled ATP, 0.2 μCi AT^33P, 20 ng poly(Glu,Tyr) 4:1 and 5 ng human Fyn.
The reaction is stopped by adding 5 μl of a 3% phosphoric acid solution. 5 μl of the reaction mixture is then spotted onto a Filtermat A filter (Wallac) and washed 3 times for 5 min. in 75 mM phosphoric acid and 1 time for 5 min. in methanol prior to drying and scintillation counting.

Chain of human Src (P12931 whole entry): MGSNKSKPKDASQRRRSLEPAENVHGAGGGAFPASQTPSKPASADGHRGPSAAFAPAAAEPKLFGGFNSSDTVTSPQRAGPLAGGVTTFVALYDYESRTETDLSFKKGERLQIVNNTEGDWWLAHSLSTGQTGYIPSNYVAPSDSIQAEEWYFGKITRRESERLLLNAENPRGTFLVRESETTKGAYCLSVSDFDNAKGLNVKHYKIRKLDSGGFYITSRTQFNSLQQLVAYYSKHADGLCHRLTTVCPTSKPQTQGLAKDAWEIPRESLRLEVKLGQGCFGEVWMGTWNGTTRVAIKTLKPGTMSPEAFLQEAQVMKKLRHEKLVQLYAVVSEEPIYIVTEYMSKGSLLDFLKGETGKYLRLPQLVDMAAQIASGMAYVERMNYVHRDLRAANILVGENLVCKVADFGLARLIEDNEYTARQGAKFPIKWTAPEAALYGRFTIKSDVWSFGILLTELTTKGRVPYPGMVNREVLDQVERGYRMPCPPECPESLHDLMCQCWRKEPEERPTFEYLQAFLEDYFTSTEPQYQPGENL
Chain of human Fyn (P06241 whole entry): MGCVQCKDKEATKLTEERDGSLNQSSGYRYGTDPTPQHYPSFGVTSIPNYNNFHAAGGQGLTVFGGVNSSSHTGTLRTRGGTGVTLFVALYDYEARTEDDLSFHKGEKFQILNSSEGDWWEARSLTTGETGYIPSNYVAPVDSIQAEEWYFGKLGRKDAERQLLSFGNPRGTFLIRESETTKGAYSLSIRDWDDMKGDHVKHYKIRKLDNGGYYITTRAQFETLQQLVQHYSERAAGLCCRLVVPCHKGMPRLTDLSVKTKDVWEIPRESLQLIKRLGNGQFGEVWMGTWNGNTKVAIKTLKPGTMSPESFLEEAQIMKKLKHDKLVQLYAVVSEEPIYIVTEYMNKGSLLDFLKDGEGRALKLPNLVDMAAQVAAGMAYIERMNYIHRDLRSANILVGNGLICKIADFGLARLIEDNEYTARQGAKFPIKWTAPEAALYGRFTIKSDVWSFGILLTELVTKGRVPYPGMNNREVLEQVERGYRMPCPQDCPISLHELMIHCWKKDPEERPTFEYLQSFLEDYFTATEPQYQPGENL

| SMILES | IC50 (human Src) [nM] | IC50 (human Fyn) [nM] |
| --- | --- | --- |
| COc1cc2ncnc3c2cc1OCCCCCN(C)Cc1cc(Br)c2c(c1N3)OCO2 [Compound B43] | > 10000 | 19.5 |
| CN1CCC(COc2cc3ncnc4c3cc2OCCCCCN(C)Cc2ccc3c(c2N4)OCO3)CC1 [Compound B22] | 1290 | > 1000 |
| CN1CCN(CCCOc2cc3ncnc4c3cc2OCCCCCN(C)Cc2ccc3c(c2N4)OCO3)CC1 [Compound B12] | 263 | 0.275 |
| CN1CCNCCCOc2cc3c(ncnc3cc2OCCCN2CCOCC2)Nc2c(ccc3c2OCO3)C1 [Compound B34] | 427 | < 1000 |
| CN1CCCCCOc2cc3c(ncnc3cc2OCCCN2CCCC2)Nc2c(ccc3c2OCO3)C1 [Compound B21] | 575 | 0.0575 |
| C[C@H]1C(=O)NCCCOc2cc3c(ncnc3cc2OCCCN2CCN(C(=O)CCS(C)(=O)=O)CC2)Nc2c(ccc3c2OCO3)CN1C [Compound B59] |  | 42.7 |
| COc1cc2ncnc3c2cc1OCCCCN(C)CCc1ccc2c(c1N3)OCO2 [Compound B53] |  | 110 |
| COc1cc2ncnc3c2cc1OCCCCCN(C(=O)OCc1ccccc1)Cc1cc(Oc2ccc(C)nc2)c2c(c1N3)OCO2 [Compound A68] |  | > 1000 |
| CN(CCO)CCCOc1cc2ncnc3c2cc1OCCCCCN(C)Cc1ccc2c(c1N3)OCO2 [Compound B15] | 562 | 0.174 |
| CN1CCNCCCOc2cc3c(ncnc3cc2OCCCN2CCC(S(C)(=O)=O)CC2)Nc2c(ccc3c2OCO3)C1 [Compound B14] |  | 19.5 |
| C[C@H]1C(=O)NCCCOc2cc3c(ncnc3cc2OCCCN2CCC(S(C)(=O)=O)CC2)Nc2c(ccc3c2OCO3)CN1C [Compound B56] |  | 85.1 |
| COCCNCCCOc1cc2ncnc3c2cc1OCCCCCN(C)Cc1ccc2c(c1N3)OCO2 [Compound B70] | 776 | 5.01 |
| C[C@H]1C(=O)NCCCOc2cc3c(ncnc3cc2O)Nc2c(ccc3c2OCO3)CN1C [Compound A40] | > 10000 | > 1000 |
| CN1CCN(CCCOc2cc3ncnc4c3cc2OCCCCCNCc2cc(Br)c3c(c2N4)OCO3)CC1 [Compound B28] |  | < 1000 |
| CN1CCCCCOc2cc3c(ncnc3cc2OCCCN2CCOCC2)Nc2c(ccc3c2OCO3)C1 [Compound B18] | 468 | < 1 |
| C[C@H]1C(=O)NCCCOc2cc3c(ncnc3cc2OCCCNCCO)Nc2c(ccc3c2OCO3)CN1C [Compound B39] |  | 129 |
| COCCOCCOc1cc2ncnc3c2cc1OCCCCCN(C)Cc1ccc2c(c1N3)OCO2 [Compound B31] | 2630 | < 1 |
| COCCOc1cc2ncnc3c2cc1OCCCCCNCc1ccc2c(c1N3)OCO2 [Compound B33] |  | 13.2 |
| CN1CCCCCOc2cc3c(ncnc3cc2OC[C@@H](O)CN2CCS(=O)(=O)CC2)Nc2c(ccc3c2OCO3)C1 [Compound B24] | 676 | < 1000 |
| CN1CCCCCOc2cc3c(ncnc3cc2OCCCN)Nc2c(ccc3c2OCO3)C1 [Compound A57] | 933 | 18.2 |

| SMILES | IC50 (human Src) [nM] | IC50 (human Fyn) [nM] |
| --- | --- | --- |
| COc1cc2ncnc3c2cc1OCCCCCN(C(=O)OCc1ccccc1)Cc1ccc2c(c1N3)OCO2 [Compound A8] |  | 204 |
| CN1CCCCCOc2cc3c(ncnc3cc2OCCCN2CCN(CCO)CC2)Nc2c(ccc3c2OCO3)C1 [Compound B13] | 295 | 3.63 |
| CN1CCCCCOc2cc3c(ncnc3cc2OC[C@@H](O)CN2CCCCC2)Nc2c(ccc3c2OCO3)C1 [Compound B1] | 537 | < 1 |
| COc1cc2ncnc3c2cc1OCCCNC(=O)[C@H](C)N(C)Cc1cc(Cl)c2c(c1N3)OCO2 [Compound B74] |  | 69.2 |
| COc1cc2ncnc3c2cc1OCCCCCNCc1ccc2c(c1N3)OCO2 [Compound A9] | 2290 | < 1000 |
| CN(CCO)CCCOc1cc2ncnc3c2cc1OCCCN(C(=O)OC(C)(C)C)CCN(C)Cc1ccc2c(c1N3)OCO2 [Compound A29] | 2630 | 43.7 |
| COc1cc2ncnc3c2cc1OCCCN(C)C(=O)[C@H](C)N(C)Cc1cc(Cl)c2c(c1N3)OCO2 [Compound B76] |  | 316 |
| COc1cc2ncnc3c2cc1OCCCNCCN(C)Cc1ccc2c(c1N3)OCO2 [Compound A22] | 3240 | 39.8 |
| COc1cc2ncnc3c2cc1OCCCN(C)CCN(C)Cc1ccc2c(c1N3)OCO2 [Compound B10] | 1910 | 21.9 |
| CN1CCCCCOc2cc3c(ncnc3cc2OCCC2CCN(C(=O)CCS(C)(=O)=O)CC2)Nc2c(ccc3c2OCO3)C1 [Compound B65] | 1820 | 5.75 |
| CN1CCNCCCOc2cc3c(ncnc3cc2O)Nc2c(ccc3c2OCO3)C1 [Compound A23] | > 10000 | > 1000 |
| CN(CCO)CCCOc1cc2ncnc3c2cc1OCCCCCN(C)Cc1cc(Br)c2c(c1N3)OCO2 [Compound B72] |  | < 1000 |
| CN1CCN(C(=O)OC(C)(C)C)CCCOc2cc3c(ncnc3cc2OCCCN2CCC(S(C)(=O)=O)CC2)Nc2c(ccc3c2OCO3)C1 [Compound A54] |  | 69.2 |
| CN1CCCCCOc2cc3c(ncnc3cc2OCCCNC(=O)CCS(C)(=O)=O)Nc2c(ccc3c2OCO3)C1 [Compound B16] | 2290 | < 1000 |
| C[C@H]1C(=O)NCCCOc2cc3c(ncnc3cc2OCCCN2CCOCC2)Nc2c(ccc3c2OCO3)CN1C [Compound A42] |  | 64.6 |
| CN1CCCCCOc2cc3c(ncnc3cc2OCCCNCCS(C)(=O)=O)Nc2c(ccc3c2OCO3)C1 [Compound B68] | 692 | < 1000 |
| Brc1cc2c(c3c1OCO3)Nc1ncnc3cc(OCCCN4CCCC4)c(cc13)OCCCCCNC2 [Compound B27] |  | < 1000 |
| CN1CCCCCOc2cc3c(ncnc3cc2OCCCN2CCN(CCO)CC2)Nc2c(cc(Br)c3c2OCO3)C1 [Compound B66] |  | < 1000 |
| COc1cc2ncnc3c2cc1OCCCCN(C(=O)OCc1ccccc1)CCc1ccc2c(c1N3)OCO2 [Compound B50] |  | > 1000 |
| CC(=O)NCCN1CCN(CCCOc2cc3ncnc4c3cc2OCCCNC(=O)[C@H](C)N(C)Cc2ccc3c(c2N4)OCO3)CC1 [Compound B60] |  | 37.2 |

| SMILES | IC50 (human Src) [nM] | IC50 (human Fyn) [nM] |
| --- | --- | --- |
| Oc1cc2ncnc3c2cc1OCCCCCNCc1cc(Br)c2c(c1N3)OCO2 [Compound B44] |  | 209 |
| C[C@H]1C(=O)NCCCOc2cc3c(ncnc3cc2OCCCN2CCN(C)CC2)Nc2c(ccc3c2OCO3)CN1C [Compound B57] |  | 26.3 |
| C[C@H]1C(=O)NCCCOc2cc3c(ncnc3cc2OC[C@@H](O)CN2CCC(O)CC2)Nc2c(ccc3c2OCO3)CN1C [Compound B62] |  | 200 |
| COCCOCCOc1cc2ncnc3c2cc1OCCCNC(=O)[C@H](C)N(C)Cc1ccc2c(c1N3)OCO2 [Compound B7] |  | 91.2 |
| COCCNCCCOc1cc2ncnc3c2cc1OCCCNC(=O)[C@H](C)N(C)Cc1ccc2c(c1N3)OCO2 [Compound B38] |  | 138 |
| C[C@H]1C(=O)NCCCOc2cc3c(ncnc3cc2OCCCN(C)CCO)Nc2c(ccc3c2OCO3)CN1C [Compound B40] |  | 214 |
| C[C@H]1C(=O)NCCCOc2cc3c(ncnc3cc2OCCCN2CCC(CCS(C)(=O)=O)CC2)Nc2c(ccc3c2OCO3)CN1C [Compound B55] |  | 115 |
| COc1cc2ncnc3c2cc1OCCCCCN(C)Cc1ccc2c(c1N3)OCO2 [Compound A11] |  | 18.2 |
| C[C@H]1C(=O)NCCCOc2cc3c(ncnc3cc2OCCCN2CCS(=O)(=O)CC2)Nc2c(ccc3c2OCO3)CN1C [Compound B36] |  | 38 |
| C[C@H]1C(=O)NCCCOc2cc3c(ncnc3cc2OCCCN2CCN(C)CC2)Nc2c(ccc3c2OCO3)CN1C [Compound B58] |  | 33.1 |
| CN1CCN(C(=O)OC(C)(C)C)CCCOc2cc3c(ncnc3cc2OC(=O)OC(C)(C)C)Nc2c(ccc3c2OCO3)C1 [Compound A25] |  | > 1000 |
| C[C@H]1C(=O)NCCCOc2cc3c(ncnc3cc2OCCCN2CCN(CCO)CC2)Nc2c(ccc3c2OCO3)CN1C [Compound B54] |  | 51.3 |
| C[C@H]1C(=O)NCCCOc2cc3c(ncnc3cc2OC[C@@H]2CO2)Nc2c(ccc3c2OCO3)CN1C [Compound B42] |  | 282 |
| C[C@H]1C(=O)NCCCOc2cc3c(ncnc3cc2OCCCN2CCOCC2)Nc2c(ccc3c2OCO3)CN1C [Compound B6] |  | 38 |
| COc1cc2ncnc3c2cc1OCCCN(C)C(=O)[C@H](C)N(C)Cc1ccc2c(c1N3)OCO2 [Compound B78] |  | > 1000 |
| CCOC(CCOc1cc2ncnc3c2cc1OCCCCCN(C)Cc1ccc2c(c1N3)OCO2)OCC [Compound B32] |  | 38 |
| CN1CCCCCOc2cc3c(ncnc3cc2O)Nc2c(cc(Br)c3c2OCO3)C1 [Compound B48] |  | 89.1 |
| COCCOc1cc2ncnc3c2cc1OCCCNC(=O)[C@H](C)N(C)Cc1ccc2c(c1N3)OCO2 [Compound B41] |  | 81.3 |
